In patent US10952992B2, “Methods of treating intraocular pressure with activators of Tie-2” (Aerpio Pharmaceuticals, Inc., priority 2015, dated 2021):
Where “and” joins values, the source holds several entries; their conditions need not be identical. Equal entries are not always repeated. Structures can show the parent of a compound that is named as a salt.

Assay: Example 2 iris, retina, choroid and cornea tissue concentrations
Type: in vivo, male New Zealand White rabbits
Conditions: for Average / Conc. (ng/g) OD / Conc. (ng/g) OS / Conc. (ng/mL) OD / Conc. (ng/mL) OS: Retina; for Choroid Conc. OS / Choroid Conc. OD: choroid homogenate; for Choroid Conc. OS / Choroid tissue Conc. OS / Cornea Conc. OS / Cornea tissue Conc. OS / Iris Conc. OS / Iris tissue Conc. OS / Retina Conc. OS / Retina tissue Conc. OS: left eye; for Choroid Conc. OS / Choroid Conc. OD / Choroid tissue Conc. OS / Choroid tissue Conc. OD / Cornea Conc. OS / Cornea Conc. OD / Cornea tissue Conc. OS / Cornea tissue Conc. OD / Iris Conc. OS / Iris Conc. OD / Iris tissue Conc. OS / Iris tissue Conc. OD / Retina Conc. OS / Retina Conc. OD / Retina tissue Conc. OS / Retina tissue Conc. OD: individual animals; for Choroid Conc. OS / Choroid Conc. OD / Choroid tissue Conc. Avg. / Choroid tissue Conc. OS / Choroid tissue Conc. OD / Cornea Conc. OS / Cornea Conc. OD / Cornea tissue Conc. Avg. / Cornea tissue Conc. OS / Cornea tissue Conc. OD / Iris Conc. OS / Iris Conc. OD / Iris tissue Conc. Avg. / Iris tissue Conc. OS / Iris tissue Conc. OD / Retina Conc. OS / Retina Conc. OD / Retina tissue Conc. Avg. / Retina tissue Conc. OS / Retina tissue Conc. OD: intravitreal 2.5 mg/eye (~1.55 mg/kg), Group 4; for Choroid Conc. OD / Choroid tissue Conc. OD / Cornea Conc. OD / Cornea tissue Conc. OD / Iris Conc. OD / Iris tissue Conc. OD / Retina Conc. OD / Retina tissue Conc. OD: right eye; for Choroid tissue Conc. Avg. / Cornea tissue Conc. Avg. / Iris tissue Conc. Avg. / Retina tissue Conc. Avg.: average; for Cornea Conc. OS / Cornea Conc. OD: cornea homogenate; for Iris Conc. OS / Iris Conc. OD: iris homogenate; for Retina Conc. OS / Retina Conc. OD: retina homogenate
Description: To measure the concentration of Compound 1 in plasma and ocular tissues following topical ocular, subcutaneous, and intravitreal administration, New Zealand White rabbits were administered Compound 1, and plasma and ocular samples were collected at pre-determined time points. Compound 1 formulations were prepared fresh on each day of dosing.
Ocular tissue samples from both eyes of each animal were collected and weights were recorded. Plasma and ocular tissue sample concentrations of Compound 1 were determined by LC-MS/MS.
Animals were anesthetized for ocular (topical) and intravitreal dosing following the 12IA7 IACUC protocol. Each rabbit received a bolus dose of test formulation either via topical ocular administration 3 times daily on Days 1 and 2 (at 0, 6, and 12 hours), and once on Day 3 (at 0 hours) into both eyes; via intravitreal administration into both eyes once on Day 1 (at 0 hours); or via subcutaneous administration 2 times daily on Days 1 and 2 (at 0 and 8 hours) and once daily on Day 3 (at 0 hours). Doses were given within an approximately 1 hour window each day where applicable.
On Day 1, for intravitreal administration, or on Day 3, for topical ocular and subcutaneous administration, at the appropriate ocular tissue collection time points, animals were euthanized and both eyes were enucleated immediately. Following enucleation, each eye was rinsed with phosphate-buffered saline. Ocular tissue samples from both eyes of each animal were collected at predetermined time points and weights were recorded. All the samples were frozen immediately on dry ice, and stored at −60° C. to −80° C. pending bioanalysis.
An LC-MS/MS method was developed for the determination of Compound 1 in rabbit aqueous tissues (plasma, aqueous and vitreous humor) and solid ocular tissue samples. A pre-study standard curve was analyzed to determine the specificity, range, and lower limit of quantitation of the method. Plasma and tissue homogenate study samples were extracted and analyzed. All the samples were treated identically to the standards.
One eight-point standard curve was used in each analytical batch. To be accepted, each batch must have had at least five of eight standards with accuracy within ±20% of nominal, except at the lower limit of quantification (LLOQ), where ±25% was acceptable.

[1] = 1 hr, subcutaneous 5 mg/kg/dose (Group 2), sodium salt
[2] = 1 hr, topical ocular 1.2 mg/eye (Group 1), sodium salt
[3] = 2 hr, subcutaneous 5 mg/kg/dose (Group 2), sodium salt
[4] = 4 hr, subcutaneous 5 mg/kg/dose (Group 2), sodium salt
[5] = 4 hr, topical ocular 1.2 mg/eye (Group 1), sodium salt

Average [1]: 32.6 ng/g
Conc. (ng/g) OD [1]: 22.4 ng/g and 18.3 ng/g
Conc. (ng/g) OS [1]: 43.2 ng/g and 46.4 ng/g
Conc. (ng/mL) OD [1]: 2.04 ng/mL and 1.66 ng/mL
Conc. (ng/mL) OS [1]: 3.93 ng/mL and 4.22 ng/mL
Average [2]: 59.2 ng/g
Conc. (ng/g) OD [2]: 76.9 ng/g and 85.9 ng/g
Conc. (ng/mL) OD [2]: 6.99 ng/mL and 7.81 ng/mL
Average [3]: 16.4 ng/g
Conc. (ng/g) OD [3]: 15.0 ng/g
Conc. (ng/g) OS [3]: 17.8 ng/g
Average (2 hr, topical ocular 1.2 mg/eye (Group 1), sodium salt): 48.3 ng/g
Average [4]: 19.7 ng/g
Conc. (ng/g) OD [4]: 19.7 ng/g
Conc. (ng/mL) OS [4]: BLOQ
Average [5]: 405 ng/g
Conc. (ng/g) OS [5]: 64.8 ng/g
Choroid Conc. OS (6.0 hr): 105000 ng/mL and 44000 ng/mL
Choroid Conc. OD (6.0 hr): 164000 ng/mL and 31500 ng/mL
Choroid Conc. OS (24 hr): 9890 ng/mL and 10400 ng/mL
Choroid Conc. OD (24 hr): 11800 ng/mL and 18400 ng/mL
Choroid Conc. OS (48 hr): 3740 ng/mL and 2790 ng/mL
Choroid Conc. OD (48 hr): 3480 ng/mL and 4040 ng/mL
Choroid Conc. OS (72 hr): 282 ng/mL and 290 ng/mL
Choroid Conc. OD (72 hr): 107 ng/mL and 311 ng/mL
Choroid tissue Conc. Avg. (6.0 hr): 947375 ng/g
Choroid tissue Conc. OS (6.0 hr): 1155000 ng/g and 484000 ng/g
Choroid tissue Conc. OD (6.0 hr): 1804000 ng/g and 346500 ng/g
Choroid tissue Conc. Avg. (24 hr): 138848 ng/g
Choroid tissue Conc. OS (24 hr): 108790 ng/g and 114400 ng/g
Choroid tissue Conc. OD (24 hr): 129800 ng/g and 202400 ng/g
Choroid tissue Conc. Avg. (48 hr): 38638 ng/g
Choroid tissue Conc. OS (48 hr): 41140 ng/g and 30690 ng/g
Choroid tissue Conc. OD (48 hr): 38280 ng/g and 44440 ng/g
Choroid tissue Conc. Avg. (72 hr): 2723 ng/g
Choroid tissue Conc. OS (72 hr): 3102 ng/g and 3190 ng/g
Choroid tissue Conc. OD (72 hr): 1177 ng/g and 3421 ng/g
Cornea Conc. OS (6.0 hr): 6940 ng/mL and 6030 ng/mL
Cornea Conc. OD (6.0 hr): 6300 ng/mL and 6710 ng/mL
Cornea Conc. OS (24 hr): 1560 ng/mL and 1930 ng/mL
Cornea Conc. OD (24 hr): 2180 ng/mL and 2940 ng/mL
Cornea Conc. OS (48 hr): 662 ng/mL and 487 ng/mL
Cornea Conc. OD (48 hr): 1050 ng/mL and 538 ng/mL
Cornea Conc. OS (72 hr): 20.1 ng/mL and 58.1 ng/mL
Cornea Conc. OD (72 hr): 18.0 ng/mL and 56.9 ng/mL
Cornea tissue Conc. Avg. (6.0 hr): 71445 ng/g
Cornea tissue Conc. OS (6.0 hr): 76340 ng/g and 66330 ng/g
Cornea tissue Conc. OD (6.0 hr): 69300 ng/g and 73810 ng/g
Cornea tissue Conc. Avg. (24 hr): 23678 ng/g
Cornea tissue Conc. OS (24 hr): 17160 ng/g and 21230 ng/g
Cornea tissue Conc. OD (24 hr): 23980 ng/g and 32340 ng/g
Cornea tissue Conc. Avg. (48 hr): 7527 ng/g
Cornea tissue Conc. OS (48 hr): 7282 ng/g and 5357 ng/g
Cornea tissue Conc. OD (48 hr): 11550 ng/g and 5918 ng/g
Cornea tissue Conc. Avg. (72 hr): 421 ng/g
Cornea tissue Conc. OS (72 hr): 221 ng/g and 639 ng/g
Cornea tissue Conc. OD (72 hr): 198 ng/g and 626 ng/g
Iris Conc. OS (6.0 hr): 34000 ng/mL and 30600 ng/mL
Iris Conc. OD (6.0 hr): 35500 ng/mL and 27800 ng/mL
Iris Conc. OS (24 hr): 7610 ng/mL and 25900 ng/mL
Iris Conc. OD (24 hr): 6890 ng/mL and 11000 ng/mL
Iris Conc. OS (48 hr): 1960 ng/mL and 2780 ng/mL
Iris Conc. OD (48 hr): 2380 ng/mL and 1820 ng/mL
Iris Conc. OS (72 hr): 225 ng/mL and 59.5 ng/mL
Iris Conc. OD (72 hr): 169 ng/mL and 110 ng/mL
Iris tissue Conc. Avg. (6.0 hr): 351725 ng/g
Iris tissue Conc. OS (6.0 hr): 374000 ng/g and 336600 ng/g
Iris tissue Conc. OD (6.0 hr): 390500 ng/g and 305800 ng/g
Iris tissue Conc. Avg. (24 hr): 141350 ng/g
Iris tissue Conc. OS (24 hr): 83710 ng/g and 284900 ng/g
Iris tissue Conc. OD (24 hr): 75790 ng/g and 121000 ng/g
Iris tissue Conc. Avg. (48 hr): 24585 ng/g
Iris tissue Conc. OS (48 hr): 21560 ng/g and 30580 ng/g
Iris tissue Conc. OD (48 hr): 26180 ng/g and 20020 ng/g
Iris tissue Conc. Avg. (72 hr): 1550 ng/g
Iris tissue Conc. OS (72 hr): 2475 ng/g and 655 ng/g
Iris tissue Conc. OD (72 hr): 1859 ng/g and 1210 ng/g
Retina Conc. OS (6.0 hr): 41100 ng/mL and 82300 ng/mL
Retina Conc. OD (6.0 hr): 39200 ng/mL and 119000 ng/mL
Retina Conc. OS (24 hr): 28000 ng/mL and 3700 ng/mL
Retina Conc. OD (24 hr): 29200 ng/mL and 35200 ng/mL
Retina Conc. OS (48 hr): 6030 ng/mL and 6530 ng/mL
Retina Conc. OD (48 hr): 6490 ng/mL and 7360 ng/mL
Retina Conc. OS (72 hr): 370 ng/mL and 484 ng/mL
Retina Conc. OD (72 hr): 750 ng/mL and 598 ng/mL
Retina tissue Conc. Avg. (6.0 hr): 774400 ng/g
Retina tissue Conc. OS (6.0 hr): 452100 ng/g and 905300 ng/g
Retina tissue Conc. OD (6.0 hr): 431200 ng/g and 1309000 ng/g
Retina tissue Conc. Avg. (24 hr): 355850 ng/g
Retina tissue Conc. OS (24 hr): 308000 ng/g and 407000 ng/g
Retina tissue Conc. OD (24 hr): 321200 ng/g and 387200 ng/g
Retina tissue Conc. Avg. (48 hr): 72628 ng/g
Retina tissue Conc. OS (48 hr): 66330 ng/g and 71830 ng/g
Retina tissue Conc. OD (48 hr): 71390 ng/g and 80960 ng/g
Retina tissue Conc. Avg. (72 hr): 6056 ng/g
Retina tissue Conc. OS (72 hr): 4070 ng/g and 5324 ng/g
Retina tissue Conc. OD (72 hr): 8250 ng/g and 6578 ng/g
distribution among iris, retina, choroid, cornea (FIG. 13) (subcutaneous 5 mg/kg/dose, sodium salt): generally higher in the iris and choroid
ocular tissue concentrations, sodium salt solution compared to free acid suspension (subcutaneous and intravitreal administration): generally higher
distribution among iris, retina, choroid, cornea (FIG. 12) (topical ocular administration at 0.7 mg/kg/dose): generally higher in the cornea
Structure (SMILES): COC(=O)N[C@@H](Cc1ccccc1)C(=O)N[C@@H](Cc1ccc(NS(=O)(=O)O)cc1)c1csc(-c2cccs2)n1 [Compound 1 sodium salt]
distribution among iris, retina, choroid, cornea (FIG. 15) (intravitreal 1.55 mg/kg, sodium salt): generally higher in the retina and choroid
